The subject of this experiment is L1210 leukemia ip in BDF1 mice, survival T/C. Nature of the experiment: NCI In Vivo Anticancer Drug Screen. Data for tumor model L1210 Leukemia (intraperitoneal) in B6D2F1 (BDF1) mice. The settings on record: endpoint: mean survival time, higher = longer survival. The method in brief:
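Mice bearing the transplanted tumor received compound or vehicle. Survival of the treated group was divided by that of the vehicle-treated control group to give the ratio.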

The mark [1] stands for this setting: dose: 100.0 mg/kg/injection, schedule: Q04DX003 (ip), vehicle: saline.
[2] abbreviates: dose: 200.0 mg/kg/injection, schedule: Q04DX003 (ip), vehicle: saline.
The mark [3] stands for this setting: dose: 400.0 mg/kg/injection, schedule: Q04DX003 (ip), vehicle: saline.
[4] abbreviates: dose: 100.0 mg/kg/injection, schedule: Q01DX009 (ip), vehicle: Klucel (hydroxypropylcellulose) (HPC).
Where [5] appears, read: dose: 200.0 mg/kg/injection, schedule: Q01DX009 (ip), vehicle: Klucel (hydroxypropylcellulose) (HPC).
[6] abbreviates: dose: 400.0 mg/kg/injection, schedule: Q01DX009 (ip), vehicle: Klucel (hydroxypropylcellulose) (HPC).
Setting [7] is: dose: 25.0 mg/kg/injection, schedule: Q01DX009 (ip), vehicle: saline.
[8] abbreviates: dose: 50.0 mg/kg/injection, schedule: Q01DX009 (ip), vehicle: saline.
[9] abbreviates: dose: 25.0 mg/kg/injection, schedule: Q04DX003 (ip), vehicle: Klucel (hydroxypropylcellulose) (HPC).
[10] abbreviates: dose: 50.0 mg/kg/injection, schedule: Q04DX003 (ip), vehicle: Klucel (hydroxypropylcellulose) (HPC).
Where [11] appears, read: dose: 100.0 mg/kg/injection, schedule: Q04DX003 (ip), vehicle: Klucel (hydroxypropylcellulose) (HPC).
Where [12] appears, read: dose: 100.0 mg/kg/injection, schedule: Q01DX001 (ip), vehicle: Klucel (hydroxypropylcellulose) (HPC).
[13] abbreviates: dose: 200.0 mg/kg/injection, schedule: Q01DX001 (ip), vehicle: Klucel (hydroxypropylcellulose) (HPC).
Setting [14] is: dose: 400.0 mg/kg/injection, schedule: Q01DX001 (ip), vehicle: Klucel (hydroxypropylcellulose) (HPC).

Where “and” joins values, the source holds several entries; their conditions need not be identical. Equal values may be shown once. Inconclusive results and toxic doses are left out.

For 21 molecules, T/C results are on record in PubChem BioAssay AID248 (DTP/NCI, 2004).

For `Nc1[nH]c(=S)[nH]c(=O)c1NC(=O)C1CC1`, the T/C is, setting by setting: under setting [1], 96 % of control; under setting [2], 105 % of control; under setting [3], 102 % of control.

In the case of `CC1=NNC(=O)CC1`, the T/C by setting is: under setting [1], 102 % of control; under setting [2], 104 % of control; under setting [3], 96 % of control.

Regarding `Cc1cccc[n+]1CC(=O)c1ccc(-c2ccc(C(=O)C[n+]3ccccc3)cc2)cc1`, the T/C by setting is: (dose: 0.04 mg/kg/injection, schedule: Q04DX003 (ip), vehicle: saline) 102 % of control; (dose: 0.08 mg/kg/injection, schedule: Q04DX003 (ip), vehicle: saline) 104 % of control; (dose: 0.15 mg/kg/injection, schedule: Q04DX003 (ip), vehicle: saline) 97 % of control.

For the molecule `O=[N+]([O-])c1cccc(-n2cccc2)c1`, the T/C is, setting by setting: (dose: 100.0 mg/kg/injection, schedule: Q01DX001 (ip), vehicle: steriod suspending solution) 101 % of control; (dose: 200.0 mg/kg/injection, schedule: Q01DX001 (ip), vehicle: steriod suspending solution) 103 % of control; (dose: 400.0 mg/kg/injection, schedule: Q01DX001 (ip), vehicle: steriod suspending solution) 97 % of control.

In the case of `c1ccc2c(c1)nc1n2CCC1`, the T/C is, setting by setting: (dose: 100.0 mg/kg/injection, schedule: Q01DX001 (ip), vehicle: carboxymethylcellulose (CMC)) 96 % of control; (dose: 200.0 mg/kg/injection, schedule: Q01DX001 (ip), vehicle: carboxymethylcellulose (CMC)) 98 % of control; (dose: 400.0 mg/kg/injection, schedule: Q01DX001 (ip), vehicle: carboxymethylcellulose (CMC)) 102 % of control.

On to `O=[N+]([O-])c1ccc(N/N=C2/C(=C/c3cccc4ccccc34)CCc3ccccc32)c([N+](=O)[O-])c1`, for which the T/C runs as follows: under setting [4], 91 % of control; under setting [5], 89 % of control; under setting [6], 91 % of control.

`NC(CSC1(c2ccc(Cl)cc2)c2ccccc2-c2ccccc21)C(=O)O` (stereo unspecified): the T/C is, setting by setting: (dose: 1.56 mg/kg/injection, schedule: Q01DX009 (ip), vehicle: other) 98 % of control; (dose: 3.12 mg/kg/injection, schedule: Q01DX009 (ip), vehicle: other) 106 % of control; (dose: 6.25 mg/kg/injection, schedule: Q01DX009 (ip), vehicle: other) 100 % of control; (dose: 12.5 mg/kg/injection, schedule: Q01DX009 (ip), vehicle: other) 98 % of control and 105 % of control; (dose: 25.0 mg/kg/injection, schedule: Q01DX009 (ip), vehicle: other) 95 % of control; (dose: 50.0 mg/kg/injection, schedule: Q01DX009 (ip), vehicle: other) 100 % of control. The T/C (dose: 100.0 mg/kg/injection, schedule: Q01DX009 (ip), vehicle: other) was 97 % of control.

For `O=S(=O)(OCC1CC2C=CC1C2)c1ccc(Br)cc1` (stereo unspecified), the T/C reads like this: (dose: 100.0 mg/kg/injection, schedule: Q04DX003 (ip), vehicle: other) 86 % of control; (dose: 200.0 mg/kg/injection, schedule: Q04DX003 (ip), vehicle: other) 89 % of control; (dose: 400.0 mg/kg/injection, schedule: Q04DX003 (ip), vehicle: other) 89 % of control.

As to `CCOC(OCC)c1nc(N)c2cnn(C)c2n1`, the T/C runs as follows: (dose: 6.25 mg/kg/injection, schedule: Q01DX009 (ip), vehicle: saline) 89 % of control; (dose: 12.5 mg/kg/injection, schedule: Q01DX009 (ip), vehicle: saline) 97 % of control; under setting [7], 106 % of control and 110 % of control; under setting [8], 94 % of control; (dose: 100.0 mg/kg/injection, schedule: Q04DX002 (ip), vehicle: saline) 112 % of control.

As to `CCOP(=S)(N1CC1(C)C)N1CC1(C)C` (stereo unspecified), the T/C by setting is: (dose: 12.5 mg/kg/injection, schedule: Q01DX015 (ip), vehicle: carboxymethylcellulose (CMC)) 105 % of control; (dose: 25.0 mg/kg/injection, schedule: Q01DX015 (ip), vehicle: carboxymethylcellulose (CMC)) 105 % of control; (dose: 50.0 mg/kg/injection, schedule: Q01DX015 (ip), vehicle: carboxymethylcellulose (CMC)) 111 % of control; (dose: 100.0 mg/kg/injection, schedule: Q01DX015 (ip), vehicle: carboxymethylcellulose (CMC)) 152 % of control; (dose: 200.0 mg/kg/injection, schedule: Q01DX015 (ip), vehicle: carboxymethylcellulose (CMC)) 164 % of control.

As to `CC(=O)N(C)c1ccc(NC(=O)Cc2ccccc2)cc1`, the T/C is 96 % of control (dose: 100.0 mg/kg/injection, schedule: Q01DX009 (ip), vehicle: saline with Tween-80); 102 % of control (dose: 200.0 mg/kg/injection, schedule: Q01DX009 (ip), vehicle: saline with Tween-80); 95 % of control (dose: 400.0 mg/kg/injection, schedule: Q01DX009 (ip), vehicle: saline with Tween-80).

Take `CCOC(=O)Nc1cc(Nc2ccc(Cl)cc2)c2ncc(C)nc2n1`: the T/C under setting [9] was 102 % of control, the T/C under setting [10] was 102 % of control and the T/C under setting [11] is 96 % of control.

For the molecule `CCOC(=O)NC(CC)c1ccc2oc3ccccc3c2c1` (stereo unspecified), the T/C under setting [12] was 98 % of control; the T/C under setting [4] was 90 % of control; the T/C under setting [13] is 103 % of control; the T/C under setting [5] was 94 % of control; the T/C under setting [14] is 108 % of control; the T/C under setting [6] was 95 % of control.

For `COc1ccc(-c2nnc3n2C(C)(C)N=C(N)N3)cc1`, the T/C is, setting by setting: (dose: 100.0 mg/kg/injection, schedule: Q04DX003 (ip), vehicle: saline with Tween-80) 94 % of control; (dose: 200.0 mg/kg/injection, schedule: Q04DX003 (ip), vehicle: saline with Tween-80) 100 % of control; (dose: 400.0 mg/kg/injection, schedule: Q04DX003 (ip), vehicle: saline with Tween-80) 97 % of control.

`COc1ccc(C2(O)c3ccccc3-c3ccccc32)cc1`: the T/C runs as follows: under setting [7], 98 % of control; under setting [8], 93 % of control; (dose: 100.0 mg/kg/injection, schedule: Q01DX009 (ip), vehicle: saline) 98 % of control; (dose: 200.0 mg/kg/injection, schedule: Q01DX009 (ip), vehicle: saline) 101 % of control; (dose: 300.0 mg/kg/injection, schedule: Q01DX009 (ip), vehicle: saline) 96 % of control; (dose: 400.0 mg/kg/injection, schedule: Q01DX009 (ip), vehicle: saline) 95 % of control.

As for `[Co+2].[N-]=Cc1ccccc1O.[N-]=Cc1ccccc1O`, the T/C under setting [9] was 110 % of control; the T/C under setting [10] was 113 % of control; the T/C under setting [11] was 99 % of control and 118 % of control.

With `CCCCCCCCCCCCCCOc1ccc(Sc2ccc([N+](=O)[O-])cc2)cc1`, the T/C runs as follows: under setting [12], 106 % of control; under setting [13], 90 % of control; under setting [14], 89 % of control.

Regarding `O=C1c2nc3ccccc3nc2C(=O)N1O`, the T/C runs as follows: under setting [4], 107 % of control; under setting [5], 100 % of control.

Take `C/C=C(\C)C(=O)OC1CC(C)=C2C(=O)C=C(C)C2C2OC(=O)C(C)C12` (stereo unspecified): the T/C under setting [11] is 98 % of control; the T/C (dose: 200.0 mg/kg/injection, schedule: Q04DX003 (ip), vehicle: Klucel (hydroxypropylcellulose) (HPC)) is 102 % of control; the T/C (dose: 400.0 mg/kg/injection, schedule: Q04DX003 (ip), vehicle: Klucel (hydroxypropylcellulose) (HPC)) was 96 % of control.

On to `C/C=C1\CN(C(=O)C(NC(=O)C(N)C(O)C(O)COC(N)=O)C2OC(n3cc(CO)c(=O)[nH]c3=O)C(O)C2O)C1C(=O)O` (stereo unspecified) (tested in a mixture with another compound), for which the T/C by setting is: (dose: 100.0 mg/kg/injection, schedule: Q01DX001 (ip), vehicle: saline) 95 % of control; (dose: 200.0 mg/kg/injection, schedule: Q01DX001 (ip), vehicle: saline) 106 % of control; (dose: 400.0 mg/kg/injection, schedule: Q01DX001 (ip), vehicle: saline) 105 % of control.

Consider `NS(=O)(=O)c1ccc(N=NN2CCOCC2)cc1`, for which the T/C was 115 % of control (dose: 100.0 mg/kg/injection, schedule: Q04DX002 (ip), vehicle: saline with Tween-80); 108 % of control (dose: 200.0 mg/kg/injection, schedule: Q04DX002 (ip), vehicle: saline with Tween-80); 115 % of control (dose: 400.0 mg/kg/injection, schedule: Q04DX002 (ip), vehicle: saline with Tween-80).
